Measurements published in ChEMBL document CHEMBL1201862, “PubChem BioAssay data set” (2004).
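Dose response: 5 concentrations. Exposure: 48 h. Format: 96-well plates. Endpoint: linear interpolation; highest concentration if not reached. Here, GI50 denotes the concentration required for 50% inhibition of growth.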 The source made the active and inactive calls. Rule as the data show it: active = GI50 up to about 1.1 µM and inactive = higher.

What was measured:
Test in all cases: inhibition of tumour cell growth, NCI panel, 48 h
[1] = tested on: A498
[2] = tested on: A549
[3] = tested on: CAKI-1
[4] = tested on: CCRF-CEM
[5] = tested on: COLO 205
[6] = tested on: DLD-1
[7] = tested on: DMS-114
[8] = tested on: DMS-273
[9] = tested on: EKVX
[10] = tested on: HCC 2998
[11] = tested on: HCT-116
[12] = tested on: HCT-15
[13] = tested on: HL-60
[14] = tested on: HOP-18
[15] = tested on: HOP-62
[16] = tested on: HOP-92
[17] = tested on: HT-29
[18] = tested on: IGROV-1
[19] = tested on: K562
[20] = tested on: KM-20L2
[21] = tested on: KM12
[22] = tested on: LOX IMVI
[23] = tested on: M19-MEL
[24] = tested on: MCF7
[25] = tested on: MOLT-4
[26] = tested on: Malme-3M
[27] = tested on: NCI-H226
[28] = tested on: NCI-H23
[29] = tested on: NCI-H460
[30] = tested on: NCI-H522
[31] = tested on: NCI/ADR-RES
[32] = tested on: OVCAR-3
[33] = tested on: OVCAR-4
[34] = tested on: OVCAR-5
[35] = tested on: OVCAR-8
[36] = tested on: RPMI-8226
[37] = tested on: RXF 393
[38] = tested on: SF-268
[39] = tested on: SF-295
[40] = tested on: SF-539
[41] = tested on: SK-MEL-28
[42] = tested on: SK-MEL-2
[43] = tested on: SK-MEL-5
[44] = tested on: SK-OV-3
[45] = tested on: SN12C
[46] = tested on: SNB-19
[47] = tested on: SNB-75
[48] = tested on: SW-620
[49] = tested on: U-251
[50] = tested on: UACC-62
[51] = tested on: UO-31
[52] = tested on: XF498
[53] = tested on: ACHN
[54] = tested on: LXFL 529
[55] = tested on: M14
[56] = tested on: SNB-78
[57] = tested on: SR
[58] = tested on: TK-10
[59] = tested on: UACC-257

Measured: GI50

CC1=NN(C(=O)c2ccccc2)C(=O)C1/N=N/c1ccccc1C(=O)O (stereo unspecified)
4.85 µM: [12]
inactive: [1] 5.47 µM | [2] 3.77 µM | [3] 6.53 µM | [4] 3.81 µM | [5] > 72.6 µM | [6] 6.89 µM | [7] 4.08 µM | [8] 3.05 µM | [9] > 100 µM | [10] 19.8 µM | [11] 3.24 µM | [13] 3.53 µM | [14] 99.1 µM | [15] 6.15 µM | [16] 4.11 µM | [17] 52.1 µM | [18] 4.14 µM | [19] 2.54 µM | [20] 63.1 µM | [21] 7.8 µM | [22] 11.5 µM | [23] 5.92 µM | [24] 3.86 µM | [25] 4.09 µM | [26] 10.9 µM | [27] 9.46 µM | [28] 3.81 µM | [29] 3.67 µM | [30] 8.05 µM | [31] 4.76 µM | [32] 4.71 µM | [33] 5.62 µM | [34] > 73.1 µM | [35] 7.87 µM | [36] 4.36 µM | [37] 2.47 µM | [38] 9.79 µM | [39] 4.1 µM | [40] 3.78 µM | [41] 89.1 µM | [42] 6.21 µM | [43] 34 µM | [44] > 25.2 µM | [45] 7.26 µM | [46] 5.75 µM | [47] 1.8 µM | [48] 16.8 µM | [49] 4.79 µM | [50] 3.1 µM | [51] 3.75 µM | [52] 2.72 µM

OCc1cc2ccncc2c2c1[nH]c1ccccc12
5.64 µM: [12]
inactive: [1] 4.5 µM | [2] 4.37 µM | [53] 3.83 µM | [3] 4.65 µM | [4] 7.33 µM | [5] 6.82 µM | [6] 3.96 µM | [7] 6.38 µM | [8] 4.04 µM | [9] 3.91 µM | [10] 2.44 µM | [11] 3.74 µM | [13] 4.84 µM | [14] 2.52 µM | [16] 12.1 µM | [17] 4.58 µM | [18] 2.73 µM | [19] 7.55 µM | [21] 4.68 µM | [22] 3.44 µM | [54] 4.58 µM | [55] 13.2 µM | [25] 3.66 µM | [26] 6.95 µM | [27] 2.13 µM | [28] 7.26 µM | [29] 2.76 µM | [33] 6.95 µM | [34] 3.95 µM | [35] 4.95 µM | [36] 6.31 µM | [37] 2.96 µM | [38] 4.66 µM | [39] 5.81 µM | [40] 3.72 µM | [41] 9.35 µM | [42] 12.1 µM | [43] 8 µM | [45] 5.42 µM | [46] 6.49 µM | [47] 4.51 µM | [56] 13.2 µM | [57] 2.83 µM | [48] 3.29 µM | [58] 11.8 µM | [49] 6.25 µM | [59] 14.8 µM | [51] 7.53 µM | [52] 5.25 µM

Nc1nncc2c1ccn2C1OC(CO)C(O)C1O (stereo unspecified)
> 100 µM: [12]
inactive: [1] > 100 µM | [2] > 100 µM | [53] > 100 µM | [4] > 100 µM | [5] > 100 µM | [6] > 100 µM | [7] > 100 µM | [8] > 100 µM | [9] > 100 µM | [10] > 100 µM | [11] > 100 µM | [13] > 100 µM | [14] > 100 µM | [15] > 100 µM | [16] > 100 µM | [17] > 100 µM | [18] > 100 µM | [19] > 100 µM | [20] > 100 µM | [21] > 100 µM | [22] > 100 µM | [54] > 100 µM | [55] > 100 µM | [23] > 100 µM | [25] > 100 µM | [26] > 100 µM | [27] > 100 µM | [28] > 100 µM | [29] > 100 µM | [32] > 100 µM | [33] > 100 µM | [34] > 100 µM | [35] > 100 µM | [36] > 100 µM | [37] > 100 µM | [38] > 100 µM | [39] > 100 µM | [40] > 100 µM | [41] 82.8 µM | [42] > 100 µM | [43] > 100 µM | [44] > 100 µM | [45] > 100 µM | [46] > 100 µM | [47] > 100 µM | [56] > 100 µM | [57] > 100 µM | [48] > 100 µM | [58] > 100 µM | [49] > 100 µM | [59] > 100 µM | [50] > 100 µM | [51] > 100 µM
